Like-named read-outs stand apart in the source and are kept apart here. Where only a bound is given, the exact number is not on record here.

This test deals with human σ1 receptor and human μ-opioid receptor. Description: μ and σ1 dual binding: human σ1 receptor radioligand assay ([3H](+)-pentazocine, transfected HEK-293 membranes) and human μ-opioid receptor radioligand assay ([3H]-DAMGO, transfected CHO-K1 membranes). On the set-up: key to μ and σ1 dual binding: +: Both Ki-μ and Ki-σ1>=500 nM; ++: One Ki<500 nM while the other Ki is >=500 nM; +++: Both Ki-μ and Ki-σ1<500 nM; ++++: Both Ki-μ and Ki-σ1<100 nM.

The mark [1] stands for this setting: one combined class for Ki-μ and Ki-σ1.

Regarding `Cn1nccc1C(c1ccccc1)N1CCN(CCc2ccccc2)CC1` (stereo not drawn) [Example 3, 1-((1-methyl-1H-pyrazol-5-yl)(phenyl)methyl)-4-phenethylpiperazine], the inhibition constant Ki (usually the equilibrium dissociation constant of an inhibitor or competing ligand from its target) is below 100 nM.

For the compound `Cn1nccc1C(c1ccccc1)N1CCN(CCc2ccccc2O)CC1` (stereo not drawn) [Example 28, 2-(2-(4-((1-Methyl-1H-pyrazol-5-yl)(phenyl)methyl)piperazin-1-yl)ethyl)phenol], the “μ and σ1 dual binding” value was “++”. As to `Cn1nccc1C(c1ccccc1)N1CCN(CCc2csc(NC(=O)OC(C)(C)C)n2)CC1` (stereo not drawn) [Example 25, tert-butyl 4-(2-(4-((1-methyl-1H-pyrazol-5-yl)(phenyl)methyl)piperazin-1-yl)ethyl)thiazol-2-ylcarbamate], the Ki under setting [1] is at least 500 nM. `Cn1nccc1C(c1ccccc1)N1CCN(CCc2ccccc2F)CC1` (stereo not drawn) [Example 22, 1-(2-fluorophenethyl)-4-((1-methyl-1H-pyrazol-5-yl)(phenyl)methyl)piperazine]: the inhibition constant Ki is below 100 nM.

Turning to `Cn1nccc1C(c1cnccc1C(F)(F)F)N1CCN(CCc2ccccc2)CC1` (stereo not drawn) [Example 19, 1-((1-methyl-1H-pyrazol-5-yl)(4-(trifluoromethyl)pyridin-3-yl)methyl)-4-phenethylpiperazine], the “μ and σ1 dual binding” value was “++”. As to `Cn1nccc1C(c1ccccc1)N1CCN(CCc2cccnc2)CC1` (stereo not drawn) [Example 36, 1-((1-methyl-1H-pyrazol-5-yl)(phenyl)methyl)-4-(2-(pyridin-3-yl)ethyl)piperazine], the inhibition constant Ki under setting [1] is at least 500 nM.

Take `Cn1nccc1C(c1ccccc1)N1CCN(CC(O)c2ccccc2)CC1` (stereo not drawn) [Example 39, 2-(4-((1-Methyl-1H-pyrazol-5-yl)(phenyl)methyl)piperazin-1-yl)-1-phenylethanol]: the “μ and σ1 dual binding” value is “++”. Regarding `Cn1nccc1C(c1ccccc1)N1CCN(CCc2ccc(C(F)(F)F)nc2)CC1` (stereo not drawn) [Example 24, 1-((1-methyl-1H-pyrazol-5-yl)(phenyl)methyl)-4-(2-(6-(trifluoromethyl)pyridin-3-yl)ethyl)piperazine], the Ki under setting [1] was at least 500 nM.

On to `Cn1nccc1C(c1cccnc1C(F)(F)F)N1CCN(CCc2ccccc2)CC1` (stereo not drawn) [Example 17, 1-((1-methyl-1H-pyrazol-5-yl)(2-(trifluoromethyl)pyridin-3-yl)methyl)-4-phenethylpiperazine], for which the inhibition constant Ki was below 500 nM. The same measure, in the same setting: as for `Cn1nccc1C(c1ccccc1)N1CCN(CCc2cccc(O)c2)CC1` (stereo not drawn) [Example 30, 3-(2-(4-((1-methyl-1H-pyrazol-5-yl)(phenyl)methyl)piperazin-1-yl)ethyl)phenol], the figure is below 100 nM. For the compound `COc1cccc(CCN2CCN(C(c3ccc(F)cn3)c3ccnn3C)CC2)c1` (stereo not drawn) [Example 27, 1-((5-fluoropyridin-2-yl)(1-methyl-1H-pyrazol-5-yl)methyl)-4-(3-methoxyphenethyl)piperazine], the “μ and σ1 dual binding” value is on record as “++”. On to `Cn1nccc1C(c1ccccc1)N1CCN(CCc2csc(N)n2)CC1` (stereo not drawn) [Example 32, 4-(2-(4-((1-Methyl-1H-pyrazol-5-yl)(phenyl)methyl)piperazin-1-yl)ethyl)thiazol-2-amine], for which, under setting [1], the inhibition constant (Ki) is at least 500 nM. Turning to `Cn1nccc1C(c1ccc(F)cn1)N1CCN(CCc2ccccn2)CC1` (stereo not drawn) [Example 15, 1-((5-fluoropyridin-2-yl)(1-methyl-1H-pyrazol-5-yl)methyl)-4-(2-(pyridin-2-yl)ethyl)piperazine], the inhibition constant Ki under setting [1] is at least 500 nM. For the compound `Cn1nccc1C(c1ccc(C(F)(F)F)nc1)N1CCN(CCc2ccccc2)CC1` (stereo not drawn) [Example 11, 1-((1-methyl-1H-pyrazol-5-yl)(6-(trifluoromethyl)pyridin-3-yl)methyl)-4-phenethylpiperazine], the “μ and σ1 dual binding” value is recorded as “++”. Still for that read-out and setting: as for `Cn1nccc1C(c1cccnc1)N1CCN(CCc2ccccc2)CC1` (stereo not drawn) [Example 5, 1-((1-methyl-1H-pyrazol-5-yl)(pyridin-3-yl)methyl)-4-phenethylpiperazine], the entry is “++”. Turning to `Cn1nccc1C(c1ccccc1)N1CCN(CCc2cccc(C(F)(F)F)n2)CC1` (stereo not drawn) [Example 42, 1-((1-methyl-1H-pyrazol-5-yl)(phenyl)methyl)-4-(2-(6-(trifluoromethyl)pyridin-2-yl)ethyl)piperazine], under setting [1], the Ki is at least 500 nM. As to `Cn1nccc1C(c1ccc(F)cn1)N1CCN(CCc2ccccc2F)CC1` (stereo not drawn) [Example 26, 1-(2-fluorophenethyl)-4-((5-fluoropyridin-2-yl)(1-methyl-1H-pyrazol-5-yl)methyl)piperazine], the “μ and σ1 dual binding” value is given as “++”. `Cn1nccc1C(c1ccccc1)N1CCN(CCc2cccc(F)c2)CC1` (stereo not drawn) [Example 35, 1-(3-Fluorophenethyl)-4-((1-methyl-1H-pyrazol-5-yl)(phenyl)methyl)piperazine] registered an inhibition constant Ki below 500 nM. For the compound `Cn1nccc1C(c1ccccc1)N1CCN(CCc2ncccc2Cl)CC1` (stereo not drawn) [Example 41, 1-(2-(3-chloropyridin-2-yl)ethyl)-4-((1-methyl-1H-pyrazol-5-yl)(phenyl)methyl)piperazine], the “μ and σ1 dual binding” value is “++”.

In the case of `Cn1nccc1C(c1ccncc1)N1CCN(CCc2ccccc2)CC1` (stereo not drawn) [Example 20, 1-((1-methyl-1H-pyrazol-5-yl)(pyridin-4-yl)methyl)-4-phenethylpiperazine], the “μ and σ1 dual binding” value is on record as “++”. Still for that read-out and setting: next, `Cn1nccc1C(c1ccc(F)cn1)N1CCN(CCc2ncccc2Cl)CC1` (stereo not drawn) [Example 43, 1-(2-(3-chloropyridin-2-yl)ethyl)-4-((5-fluoropyridin-2-yl)(1-methyl-1H-pyrazol-5-yl)methyl)piperazine]: “++”.

Compound `COc1cccc(CCN2CCN(C(c3ccccc3)c3ccnn3C)CC2)c1` (stereo not drawn) [Example 21, 1-(3-Methoxyphenethyl)-4-((1-methyl-1H-pyrazol-5-yl)(phenyl)methyl)piperazine] came in with a Ki below 500 nM. Turning to `Cn1nccc1C(c1ccccc1)N1CCN(CCc2ccc(F)cc2)CC1` (stereo not drawn) [Example 23, 1-(4-fluorophenethyl)-4-((1-methyl-1H-pyrazol-5-yl)(phenyl)methyl)piperazine], the “μ and σ1 dual binding” value is reported as “++”. Same read-out and setting: next, `Cn1nccc1C(c1cccc(C(F)(F)F)n1)N1CCN(CCc2ccccc2)CC1` (stereo not drawn) [Example 10, 1-((1-methyl-1H-pyrazol-5-yl)(6-(trifluoromethyl)pyridin-2-yl)methyl)-4-phenethylpiperazine]: “++”; `Cn1nccc1C(c1ccccc1)N1CCN(Cc2ccccc2)CC1` (stereo not drawn) [Example 2, 1-benzyl-4-((1-methyl-1H-pyrazol-5-yl)(phenyl)methyl)piperazine]: “++”. Compound `COc1cccc(C(c2ccnn2C)N2CCN(CCc3ccccc3)CC2)c1` (stereo not drawn) [Example 7, 1-((3-methoxyphenyl)(1-methyl-1H-pyrazol-5-yl)methyl)-4-phenethylpiperazine] showed an inhibition constant (Ki) below 100 nM. In the case of `COc1ccccc1CCN1CCN(C(c2ccccc2)c2ccnn2C)CC1` (stereo not drawn) [Example 6, 1-(2-methoxyphenethyl)-4-((1-methyl-1H-pyrazol-5-yl)(phenyl)methyl)piperazine], the inhibition constant (Ki) under setting [1] was at least 500 nM. For the compound `Cn1nccc1C(c1cccc(O)c1)N1CCN(CCc2ccccc2)CC1` (stereo not drawn) [Example 29, 3-((1-methyl-1H-pyrazol-5-yl)(4-phenethylpiperazin-1-yl)methyl)phenol], the Ki was below 500 nM. Consider `Cn1nccc1C(c1ncccc1F)N1CCN(CCc2ccccc2)CC1` (stereo not drawn) [Example 16, 1-((3-fluoropyridin-2-yl)(1-methyl-1H-pyrazol-5-yl)methyl)-4-phenethylpiperazine], for which the “μ and σ1 dual binding” value was “++”.

Take `Cn1nccc1C(c1ccc(C(F)(F)F)cn1)N1CCN(CCc2ccccc2)CC1` (stereo not drawn) [Example 14, 1-((1-methyl-1H-pyrazol-5-yl)(5-(trifluoromethyl)pyridin-2-yl)methyl)-4-phenethylpiperazine]: the “μ and σ1 dual binding” value is reported as “++”. As for `Cn1nccc1C(c1ccccc1)N1CCN(CCc2cccc(N)n2)CC1` (stereo not drawn) [Example 40, 6-(2-(4-((1-Methyl-1H-pyrazol-5-yl)(phenyl)methyl)piperazin-1-yl)ethyl)pyridin-2-amine], the Ki under setting [1] was at least 500 nM. In the case of `Cn1nccc1C(c1ccc(F)cn1)N1CCN(CCc2cccc(F)c2)CC1` (stereo not drawn) [Example 38, 1-(3-fluorophenethyl)-4-((5-fluoropyridin-2-yl)(1-methyl-1H-pyrazol-5-yl)methyl)piperazine], the Ki is below 500 nM. Take `Cn1nccc1C(c1ccc(F)cn1)N1CCN(CCc2cccc(O)c2)CC1` (stereo not drawn) [Example 31, 3-(2-(4-((5-fluoropyridin-2-yl)(1-methyl-1H-pyrazol-5-yl)methyl)piperazin-1-yl)ethyl)phenol]: the “μ and σ1 dual binding” value is reported as “++”. Regarding `Cn1nccc1C(c1ccccc1)N1CCN(CCc2cccc(N(S(C)(=O)=O)S(C)(=O)=O)n2)CC1` (stereo not drawn) [Example 45, N-(6-(2-(4-((1-methyl-1H-pyrazol-5-yl)(phenyl)methyl)piperazin-1-yl)ethyl)pyridin-2-yl)-N-(methylsulfonyl)methanesulfonamide], the Ki under setting [1] was at least 500 nM.

Turning to `Cn1nccc1C(c1ccccc1)N1CCN(CCc2ncccc2F)CC1` (stereo not drawn) [Example 33, 1-(2-(3-Fluoropyridin-2-yl)ethyl)-4-((1-methyl-1H-pyrazol-5-yl)(phenyl)methyl)piperazine], under setting [1], the inhibitory constant (Ki) is at least 500 nM.

For `Cn1nccc1C(c1ccccc1)N1CCN(CCc2ccccn2)CC1` (stereo not drawn) [Example 1, 1-((1-Methyl-1H-pyrazol-5-yl)(phenyl)methyl)-4-(2-(pyridin-2-yl)ethyl)piperazine], the “μ and σ1 dual binding” value is reported as “++”. For `Cn1nccc1C(c1ccc(Cl)cn1)N1CCN(CCc2ccccc2)CC1` (stereo not drawn) [Example 18, 1-((5-chloropyridin-2-yl)(1-methyl-1H-pyrazol-5-yl)methyl)-4-phenethylpiperazine], the “μ and σ1 dual binding” value was “++”. As to `Cn1nccc1C(c1ccccc1)N1CCN(CCc2cccc(NS(C)(=O)=O)n2)CC1` (stereo not drawn) [Example 44, N-(6-(2-(4-((1-methyl-1H-pyrazol-5-yl)(phenyl)methyl)piperazin-1-yl)ethyl)pyridin-2-yl)methanesulfonamide], the inhibition constant Ki under setting [1] is at least 500 nM. Turning to `COc1ccc(C(c2ccnn2C)N2CCN(CCc3ccccc3)CC2)cc1` (stereo not drawn) [Example 9, 1-((4-methoxyphenyl)(1-methyl-1H-pyrazol-5-yl)methyl)-4-phenethylpiperazine], the inhibitory constant (Ki) is below 500 nM.

Values taken from patent publication US10189828B2, “1-methylpyrazole-piperazine compounds having multimodal activity against pain” (LABORATORIOS DEL DR. ESTEVE S.A., priority 2014, dated 2019).
